Publication PMC12441834, “Highly Potent and Subtype-Selective Sperm-Specific Potassium Channel SLO3 Inhibitors Display High Tissue Exposure in the Murine Female Reproductive Tract” (ACS Pharmacology & Translational Science, 2025)
Like-named read-outs stand apart in the source and are kept apart here.

Key:
hERG [1] = molecular target: T1, hERG (Homo sapiens, UniProt Q12809); assay: hERG patch clamp electrophysiology (HEK-293-hERG); type: cell-based; conditions: for selectivity ratio: human, HEK-293 cells stably expressing hERG, pH 7.35, hERG IC50 / hSLO3 IC50, read-out: hERG selectivity [fold] (SLO3 versus hERG); for IC50: whole-cell patch clamp, HEK-293-hERG
T1 construct: expressed in transfected cells
Experimental: Whole-cell patch-clamp electrophysiology was used to record hERG currents from a stably transfected monoclonal cell line expressing human hERG. The HEK-293-hERG cell line was generously provided by Dr. David Weaver (Vanderbilt University). Cells were cultured in a 5% CO2 incubator at 37 °C, dissociated with 0.25% Trypsin-EDTA, and seeded onto 12 mm circular coverslips (Electron Microscopy Sciences, PA, USA) for same-day whole-cell patch-clamp recordings. hERG currents were recorded at room temperature by using an AxoPatch 200B amplifier with Clampex 10.7 software (Molecular Devices, USA). The voltage-clamp protocol consisted of a 4-s step to +30 mV from a −80 mV holding potential, followed by a 4-s step to −40 mV, repeated every 10 s. Data were sampled at 5 kHz and filtered at 1 kHz. Patch pipettes, pulled from 1.5 mm OD thin-walled capillaries (Warner Instruments, MA, USA) using a Sutter P-1000 puller (Sutter Instrument, CA, USA), had resistances of 2–3 MΩ when filled with intracellular solution containing (mM): 135 KCl, 10 HEPES, 1 EGTA, 2 MgCl2, 2 Na2ATP (pH 7.35, adjusted with KOH). The extracellular solution contained (mM): 135 NaCl, 5 KCl, 2 CaCl2, 1 MgCl2, 5 Glucose, 10 HEPES, and 10 Sucrose (pH 7.35, adjusted with NaOH). After establishing stable baseline hERG currents, cells were perfused with compounds at concentrations of 0.03–30 μM until response saturation (typically 2–8 min). Recordings concluded with a 10 μM Quinidine solution to isolate Quinidine-sensitive currents, with compound responses expressed as fractions of this current. Peak “tail” current amplitudes at the beginning of −40 mV steps were analyzed using Clampfit 11.2 (Molecular Devices). IC50 values were calculated by fitting the Hill equation to concentration–response curves (CRCs) using the built-in Y = Bottom + (Top – Bottom)/(1 + (IC50/X)^HillSlope) model (nonlinear regression fit: [Inhibitor] vs response – Variable slope (four parameters)) in GraphPad Prism 10.4 (GraphPad Software).

human SLO3 [2] = molecular target: T2, human SLO3 (Homo sapiens, UniProt A8MYU2); assay: SLO3 patch-clamp electrophysiology, human SLO3-γ2 expressed in HEK293 cells; type: cell-based; conditions: transfected HEK293 cells (human SLO3-γ2), whole-cell patch clamp, currents at +100 mV; read-out: hSLO3 IC50
T2 construct: expressed in transfected cells
T2 sequence (A8MYU2 1-1149): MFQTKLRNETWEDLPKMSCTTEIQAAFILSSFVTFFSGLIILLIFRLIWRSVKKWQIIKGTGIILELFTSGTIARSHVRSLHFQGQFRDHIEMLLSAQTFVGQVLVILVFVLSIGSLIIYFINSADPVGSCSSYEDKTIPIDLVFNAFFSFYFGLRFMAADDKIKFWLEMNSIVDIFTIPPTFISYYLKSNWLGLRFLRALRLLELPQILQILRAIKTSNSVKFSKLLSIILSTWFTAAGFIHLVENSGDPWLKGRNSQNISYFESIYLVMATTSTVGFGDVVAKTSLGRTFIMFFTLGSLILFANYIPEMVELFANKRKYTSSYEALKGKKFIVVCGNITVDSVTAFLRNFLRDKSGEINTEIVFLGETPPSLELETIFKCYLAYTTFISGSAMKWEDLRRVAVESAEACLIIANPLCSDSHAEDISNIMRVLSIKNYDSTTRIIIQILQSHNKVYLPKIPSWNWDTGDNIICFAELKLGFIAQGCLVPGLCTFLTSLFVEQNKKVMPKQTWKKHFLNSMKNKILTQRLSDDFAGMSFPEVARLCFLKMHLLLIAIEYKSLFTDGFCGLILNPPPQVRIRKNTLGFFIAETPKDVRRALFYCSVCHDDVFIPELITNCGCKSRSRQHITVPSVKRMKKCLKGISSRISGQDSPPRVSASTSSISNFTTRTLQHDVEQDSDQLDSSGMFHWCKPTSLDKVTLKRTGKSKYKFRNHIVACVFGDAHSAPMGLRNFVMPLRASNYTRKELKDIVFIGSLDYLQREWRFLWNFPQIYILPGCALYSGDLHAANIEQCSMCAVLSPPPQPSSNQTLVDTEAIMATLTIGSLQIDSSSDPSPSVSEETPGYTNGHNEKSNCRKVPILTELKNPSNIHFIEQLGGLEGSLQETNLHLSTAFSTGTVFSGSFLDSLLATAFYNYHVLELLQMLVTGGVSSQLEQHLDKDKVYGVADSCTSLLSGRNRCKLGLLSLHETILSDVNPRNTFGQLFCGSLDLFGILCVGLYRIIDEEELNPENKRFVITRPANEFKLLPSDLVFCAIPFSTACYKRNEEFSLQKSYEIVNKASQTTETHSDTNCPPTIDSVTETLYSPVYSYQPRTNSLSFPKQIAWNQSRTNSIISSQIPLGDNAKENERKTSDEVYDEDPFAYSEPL
T2 sequence (Q8N7C0 24-313 partner): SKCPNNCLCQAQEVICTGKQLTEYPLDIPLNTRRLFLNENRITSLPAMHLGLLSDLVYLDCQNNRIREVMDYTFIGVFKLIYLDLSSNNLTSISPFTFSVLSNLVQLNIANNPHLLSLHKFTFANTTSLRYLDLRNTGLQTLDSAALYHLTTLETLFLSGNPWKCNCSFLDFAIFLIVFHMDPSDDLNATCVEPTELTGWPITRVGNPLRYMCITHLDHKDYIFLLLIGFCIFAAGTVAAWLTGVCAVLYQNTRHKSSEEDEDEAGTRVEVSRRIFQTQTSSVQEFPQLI
Experimental: (§1) HEK293 cells were transfected with the bicistronic vector pBUD-CE4.1 containing the genes of interest and a gene conferring antibiotic resistance. Cells were exposed to gradients of selection antibiotics, and optimal growth conditions for the stable lines were as follows: SLO3 and γ2 (SLO3-γ2) supplemented with 700 μg/mL Zeocin (Invitrogen); human SLO1 and β1 (SLO1-β1) with 1 mg/mL G418 (Sigma) and 3 μg/mL puromycin (Corning, Thermo Fisher); and human SLO1 and β4 (SLO1-β4) with 250 μg/mL Zeocin and 3 μg/mL puromycin. All cell lines were grown in Dulbecco’s Modified Eagle Medium (Gibco, Thermo Fisher) supplemented with 10% fetal bovine serum, 1% penicillin–streptomycin (Millipore Sigma), and selection antibiotics. To generate cells expressing SLO1 and γ2, stable SLO1-expressing HEK293 cells were transiently transfected with expression vectors for γ2 and green fluorescent protein (GFP) in the presence of lipofectamine (Invitrogen) for 5 h.
(§2) The cells were then washed and incubated in supplemented Dulbecco’s Modified Eagle Medium for 48 h before use. Patch-clamp electrophysiology was performed only on cells expressing GFP.
(§3) Currents in HEK293 cells were measured in the whole-cell patch-clamp configuration with an Axopatch 200B amplifier, digitized with a Digidata 1440A, and interfaced with Clampex 10.6.0.13 (Molecular Devices). […] An isolated cell was located on an Axiovert 200 microscope (Zeiss), and a gigaohm seal was formed with a borosilicate pipette with resistance between 3 and 6 MΩ and filled with internal solution (140 mM KMeSO3, 10 mM HEPES, 10 mM MES, 1 mM EGTA, pH 7). The seal was then broken by applying a negative pressure. Cells were kept at a holding potential of −60 mV for 50 ms, tested with a stepped voltage protocol from −80 to +150 mV in 10 mV increments for 100 ms, and then dropped to −40 mV for 50 ms with 2.5 s between sweeps. This protocol was used to record currents present with increasing concentration of our compound of interest or 3 μL/mL vehicle (DMSO) in the bath solution. Individual cells were tested with between 1 and 5 concentrations of the compound of interest or until the patch was lost. Currents were allowed to stabilize before the initial recording and after the perfusion solution was changed before recording.
Data were analyzed with a pClamp 10.6 (Molecular Devices). VU6047606 and VU6032735 inhibition dose–response relationships were fit by the Hill equation in OriginPro 7.5 (OriginLab Corporation): R=1/1+(C/IC50)^n+Ioff , in which R is fractional unblock, C is compound concentration, IC50 is the half inhibition concentration, n is the Hill coefficient, and I off is an offset item for leak current. Error bars in the figures represent the SDs. Each data point is averaged from at least 5 measurements. Curve-fitting results are reported as the fitted values with standard error, which was estimated by OriginPro according to the Error Propagation formula.

hSLO1 [3] = molecular target: T3, hSLO1 (Homo sapiens, UniProt Q12791); assay: SLO1 inhibition in HEK cells; type: cell-based; conditions: for SLO1 selectivity (fold selective for SLO3): SLO1 IC50 / hSLO3 IC50
T3 construct: expressed in transfected cells; host or cells: HEK293
Experimental: as §1, §2, §3

hERG [4] = molecular target: T1, hERG; design: method as in PMID 36649421; conditions: cited from earlier work
human SLO3 [5] = molecular target: T2, human SLO3; design: method as in PMID 36649421; conditions: earlier work of the Santi Lab; cited from earlier work
hSLO1 [6] = molecular target: T3, hSLO1; design: method as in PMID 36649421; conditions: cited from earlier work

T1 sequence (Q12809 whole entry): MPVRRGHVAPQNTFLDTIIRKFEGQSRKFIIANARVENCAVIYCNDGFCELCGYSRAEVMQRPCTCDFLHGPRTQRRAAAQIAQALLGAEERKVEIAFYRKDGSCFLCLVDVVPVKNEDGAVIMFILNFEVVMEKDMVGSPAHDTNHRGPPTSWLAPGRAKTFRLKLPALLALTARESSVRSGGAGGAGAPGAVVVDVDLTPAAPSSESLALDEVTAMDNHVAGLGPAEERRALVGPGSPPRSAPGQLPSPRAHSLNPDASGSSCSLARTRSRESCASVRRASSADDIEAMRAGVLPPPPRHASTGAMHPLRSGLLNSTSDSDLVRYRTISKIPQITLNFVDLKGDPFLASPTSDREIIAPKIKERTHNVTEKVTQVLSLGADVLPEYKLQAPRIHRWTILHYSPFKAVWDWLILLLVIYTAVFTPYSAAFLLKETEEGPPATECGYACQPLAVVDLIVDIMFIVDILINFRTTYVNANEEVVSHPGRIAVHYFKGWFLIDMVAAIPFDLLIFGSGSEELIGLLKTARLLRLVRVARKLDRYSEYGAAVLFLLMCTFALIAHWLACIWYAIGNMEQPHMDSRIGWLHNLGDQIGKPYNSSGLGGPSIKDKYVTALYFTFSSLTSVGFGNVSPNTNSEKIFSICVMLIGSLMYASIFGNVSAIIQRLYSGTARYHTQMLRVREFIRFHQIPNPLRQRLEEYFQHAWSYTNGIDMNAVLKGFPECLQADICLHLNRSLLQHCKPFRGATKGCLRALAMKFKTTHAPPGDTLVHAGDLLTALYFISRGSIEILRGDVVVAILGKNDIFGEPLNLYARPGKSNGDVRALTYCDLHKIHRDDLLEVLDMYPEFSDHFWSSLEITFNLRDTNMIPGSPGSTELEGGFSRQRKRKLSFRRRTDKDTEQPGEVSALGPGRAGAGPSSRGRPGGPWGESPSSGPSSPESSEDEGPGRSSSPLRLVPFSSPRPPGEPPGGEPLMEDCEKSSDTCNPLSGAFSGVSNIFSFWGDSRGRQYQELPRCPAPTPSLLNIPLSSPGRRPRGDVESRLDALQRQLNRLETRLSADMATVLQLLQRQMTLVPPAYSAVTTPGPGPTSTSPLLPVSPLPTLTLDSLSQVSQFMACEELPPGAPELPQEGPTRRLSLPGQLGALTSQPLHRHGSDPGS
T3 sequence (Q12791 whole entry): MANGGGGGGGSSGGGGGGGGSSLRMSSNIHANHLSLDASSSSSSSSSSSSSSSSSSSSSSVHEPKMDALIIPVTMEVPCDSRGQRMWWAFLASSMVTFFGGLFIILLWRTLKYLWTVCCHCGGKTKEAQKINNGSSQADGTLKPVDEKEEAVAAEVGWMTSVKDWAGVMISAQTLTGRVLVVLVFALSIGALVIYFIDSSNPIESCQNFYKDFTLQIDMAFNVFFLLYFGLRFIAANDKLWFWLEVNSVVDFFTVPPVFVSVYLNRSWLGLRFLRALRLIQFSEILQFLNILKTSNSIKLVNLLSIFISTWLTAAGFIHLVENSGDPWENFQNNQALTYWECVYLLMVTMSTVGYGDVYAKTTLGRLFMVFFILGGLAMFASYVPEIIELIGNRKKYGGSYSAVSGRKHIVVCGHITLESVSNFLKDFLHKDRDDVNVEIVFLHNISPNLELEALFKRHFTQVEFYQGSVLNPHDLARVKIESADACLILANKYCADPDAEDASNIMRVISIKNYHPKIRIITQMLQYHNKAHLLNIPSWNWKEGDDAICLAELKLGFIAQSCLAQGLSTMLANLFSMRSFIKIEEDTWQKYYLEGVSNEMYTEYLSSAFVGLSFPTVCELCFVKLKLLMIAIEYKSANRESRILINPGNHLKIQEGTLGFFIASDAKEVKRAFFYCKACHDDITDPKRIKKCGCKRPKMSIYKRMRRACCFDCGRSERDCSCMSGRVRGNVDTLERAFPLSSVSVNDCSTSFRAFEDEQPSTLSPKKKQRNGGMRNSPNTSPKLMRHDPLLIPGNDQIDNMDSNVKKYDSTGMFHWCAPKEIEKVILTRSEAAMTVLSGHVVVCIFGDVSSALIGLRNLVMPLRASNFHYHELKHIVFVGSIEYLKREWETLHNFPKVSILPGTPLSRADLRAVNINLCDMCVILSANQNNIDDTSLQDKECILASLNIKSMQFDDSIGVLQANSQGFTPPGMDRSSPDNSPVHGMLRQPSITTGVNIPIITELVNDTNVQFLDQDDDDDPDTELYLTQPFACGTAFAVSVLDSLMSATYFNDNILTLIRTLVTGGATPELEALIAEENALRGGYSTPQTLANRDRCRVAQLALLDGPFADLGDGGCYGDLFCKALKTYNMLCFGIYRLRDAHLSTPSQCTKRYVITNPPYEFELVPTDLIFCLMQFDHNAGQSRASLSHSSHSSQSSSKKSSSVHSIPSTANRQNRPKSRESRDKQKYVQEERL

IC50 (human SLO3 [2]) [µM]	IC50 (hSLO1 [3]) [µM]	SLO1 selectivity (fold selective for SLO3) (hSLO1 [3]) [fold]	Structure (SMILES)	selectivity ratio (hERG [1])	IC50 (hERG [1]) [µM]	selectivity for SLO3 over hERG (hERG [4]) [fold]	IC50 (human SLO3 [5]) [µM]	selectivity for SLO3 over SLO1 (hSLO1 [6]) [fold]
0.223	34	153	O=C(CCCS(=O)(=O)c1ccc(Cl)cc1)N1CCC(Oc2nc3ccccc3s2)CC1 [VU0528254]	4.2	0.928			
0.445	6.38	14	O=C(c1ccc(OCc2nc(C3CC3)cs2)cc1)N1CCN(c2ccc(C(F)(F)F)cn2)CC1 [VU0530373]	1.1	0.511			
			COc1ccc(SCC2CCN(C(=O)Cc3ccc(S(=O)(=O)C(C)C)cc3)CC2)cc1 [VU0546110]			1.5	1.29	46
